Experimental data published in patent US9334289B2, “Cephem compound having catechol or pseudo-catechol structure” (SHIONOGI & CO., LTD., priority 2011, dated 2016).
In brackets after ≈: the same amount, converted by molar mass.

Assays:
Assay in all cases: MIC, CLSI broth microdilution, Test Example 1
Format in all cases: cell-based
P. aeruginosa SR24 = settings: Ceftazidime resistance strain, cation-adjusted Mueller Hinton broth containing human apo-transferrin, 5×10^5 cfu/mL; for MIC: Pseudomonas aeruginosa, SR24, read-out: Minimum Inhibitory Concentration (MIC) P. aeruginosa SR24
A. baumannii SR27323 = settings: OXA-23, OXA-58 carbapenemase producing strain, cation-adjusted Mueller Hinton broth containing human apo-transferrin, 5×10^5 cfu/mL; for MIC: Acinetobacter baumannii, SR27323, read-out: Minimum Inhibitory Concentration (MIC) A. baumannii SR27323
Experimental: (§1) Measurement of Minimum Inhibitory Concentration (MIC: μg/mL) was conducted according to CLSI (Clinical and Laboratory Standards Institute) method, and the amount of bacteria for inoculation was 5×10^5 cfu/mL, and cation-adjusted Mueller Hinton broth containing human apo-transferrin was used as a test medium, and the experiment was conducted using broth microdilution method. The bacteria used are listed below.

E. coli ATCCBAA-199 = settings: SHV-3 ESBL producing strain, cation-adjusted Mueller Hinton broth containing human apo-transferrin, 5×10^5 cfu/mL; for MIC: Escherichia coli, ATCCBAA199, read-out: Minimum Inhibitory Concentration (MIC) E. coli ATCC BAA-199
Experimental: as §1

E. coli ATCCBAA-200 = settings: SHV-4 ESBL producing strain, cation-adjusted Mueller Hinton broth containing human apo-transferrin, 5×10^5 cfu/mL; for MIC: Escherichia coli, ATCCBAA200, read-out: Minimum Inhibitory Concentration (MIC) E. coli ATCC BAA-200
Experimental: as §1

[1] = test system: K. pneumoniae ATCCBAA-1705; settings: KPC-2 carbapenemase producing strain, cation-adjusted Mueller Hinton broth containing human apo-transferrin, 5×10^5 cfu/mL; for MIC: Klebsiella pneumoniae, ATCCBAA1705, read-out: Minimum Inhibitory Concentration (MIC) K. pneumoniae ATCCBAA-1705
Experimental: as §1

P. aeruginosa SR24837 = settings: PER-1 ESBL producing strain, cation-adjusted Mueller Hinton broth containing human apo-transferrin, 5×10^5 cfu/mL; for MIC: Pseudomonas aeruginosa, SR24837, read-out: Minimum Inhibitory Concentration (MIC) P. aeruginosa SR24837
Experimental: as §1

P. aeruginosa SR27060 = settings: IMP-1 MBL producing strain (carbapenem resistance strain), cation-adjusted Mueller Hinton broth containing human apo-transferrin, 5×10^5 cfu/mL; for MIC: Pseudomonas aeruginosa, SR27060, read-out: Minimum Inhibitory Concentration (MIC) P. aeruginosa SR27060
Experimental: as §1

Row | SMILES | MIC (P. aeruginosa SR24) | MIC (A. baumannii SR27323) | MIC (E. coli ATCCBAA-199) | MIC (E. coli ATCCBAA-200) | MIC [1] | MIC (P. aeruginosa SR24837) | MIC (P. aeruginosa SR27060) | Minimum Inhibitory Concentration (MIC) P. aeruginosa SR24 (P. aeruginosa SR24) | Minimum Inhibitory Concentration (MIC) A. baumannii SR27323 (A. baumannii SR27323) | Minimum Inhibitory Concentration (MIC) E. coli ATCC BAA-199 (E. coli ATCCBAA-199) | Minimum Inhibitory Concentration (MIC) E. coli ATCC BAA-200 (E. coli ATCCBAA-200) | Minimum Inhibitory Concentration (MIC) K. pneumoniae ATCCBAA-1705 [1] | Minimum Inhibitory Concentration (MIC) P. aeruginosa SR24837 (P. aeruginosa SR24837) | Minimum Inhibitory Concentration (MIC) P. aeruginosa SR27060 (P. aeruginosa SR27060)
1 | Cc1c(O)c(O)cc2cc[n+](CC3=C(c4nnn[n-]4)N4C(=O)[C@@H](NC(=O)/C(=N\OC(C)(C)C(=O)[O-])c5csc(N)n5)[C@H]4SC3)cc12.[Na+] [Compound I-22] | ≤ 0.031 µg/mL | 0.125 µg/mL | 0.063 µg/mL | 0.125 µg/mL | ≤ 0.031 µg/mL | 0.25 µg/mL | 0.25 µg/mL | – | – | – | – | – | – | –
2 | CC(C)(O/N=C(\C(=O)N[C@@H]1C(=O)N2C(c3nnn[n-]3)=C(C[N+]3(C)[C@@H]4CC[C@H]3C[C@@H](NC(=O)c3cc(O)c(O)c(F)c3)C4)CS[C@H]12)c1csc(N)n1)C(=O)[O-].[Na+] (stereo partly shown) [Compound I-6] | 0.25 µg/mL | 2 µg/mL | 0.25 µg/mL | 0.5 µg/mL | ≤ 0.031 µg/mL | 1 µg/mL | 0.5 µg/mL | – | – | – | – | – | – | –
3 | CC(C)(O/N=C(\C(=O)N[C@@H]1C(=O)N2C(c3nnn[n-]3)=C(C[N+]34CCCC3(CNC(=O)c3ccc(O)c(O)c3Cl)CCC4)CS[C@H]12)c1cnc(N)s1)C(=O)[O-].[Na+] (stereo partly shown) [Compound I-80] | ≤ 0.031 µg/mL | 2 µg/mL | 0.5 µg/mL | 1 µg/mL | ≤ 0.031 µg/mL | 0.125 µg/mL | 0.25 µg/mL | – | – | – | – | – | – | –
4 | CC(C)(O/N=C(\C(=O)N[C@@H]1C(=O)N2C(c3nnn[nH]3)=C(C[n+]3cccc4c(NC(=O)c5ccc(O)c(O)c5Cl)cccc43)CS[C@H]12)c1csc(N)n1)C(=O)[O-] [Compound I-76] | 0.125 µg/mL (≈ 0.155 µM) | 0.5 µg/mL (≈ 0.62 µM) | 0.25 µg/mL (≈ 0.31 µM) | 0.5 µg/mL (≈ 0.62 µM) | ≤ 0.031 µg/mL | 0.125 µg/mL (≈ 0.155 µM) | 0.5 µg/mL (≈ 0.62 µM) | – | – | – | – | – | – | –
5 | Nc1nc(C(=NOC(CC(=O)[O-])C(=O)[O-])C(=O)NC2C(=O)N3C(c4nnn[n-]4)=C(C[N+]4(CCNC(=O)c5ccc(O)c(O)c5Cl)CCCC4)CSC23)c(Cl)s1.[Na+].[Na+] (stereo not shown) [Compound I-91] | – | – | – | – | – | – | – | 0.063 µg/mL | 0.5 µg/mL | 0.125 µg/mL | 0.25 µg/mL | ≦0.031 μg/ml | 0.063 µg/mL | 0.125 µg/mL
6 | CC(C)(O/N=C(\C(=O)N[C@@H]1C(=O)N2C(c3nnn[n-]3)=C(Cn3cc[n+](CCNC(=O)c4ccc(O)c(O)c4Cl)c3)CS[C@H]12)c1csc(N)n1)C(=O)[O-].[Na+] [Compound I-74] | 0.125 µg/mL | 0.5 µg/mL | 0.063 µg/mL | 0.125 µg/mL | ≤ 0.031 µg/mL | 0.5 µg/mL | 0.25 µg/mL | – | – | – | – | – | – | –

The next lines start with results.

Row | MIC (P. aeruginosa SR24) | MIC (A. baumannii SR27323) | MIC (E. coli ATCCBAA-199) | MIC (E. coli ATCCBAA-200) | MIC [1] | MIC (P. aeruginosa SR24837) | MIC (P. aeruginosa SR27060) | SMILES | Minimum Inhibitory Concentration (MIC) P. aeruginosa SR24 (P. aeruginosa SR24) | Minimum Inhibitory Concentration (MIC) A. baumannii SR27323 (A. baumannii SR27323) | Minimum Inhibitory Concentration (MIC) E. coli ATCC BAA-199 (E. coli ATCCBAA-199) | Minimum Inhibitory Concentration (MIC) E. coli ATCC BAA-200 (E. coli ATCCBAA-200) | Minimum Inhibitory Concentration (MIC) K. pneumoniae ATCCBAA-1705 [1] | Minimum Inhibitory Concentration (MIC) P. aeruginosa SR24837 (P. aeruginosa SR24837) | Minimum Inhibitory Concentration (MIC) P. aeruginosa SR27060 (P. aeruginosa SR27060)
7 | 0.063 µg/mL | 0.5 µg/mL | 0.063 µg/mL | 0.125 µg/mL | 0.063 µg/mL | ≤ 0.031 µg/mL | 0.5 µg/mL | CC(C)(O/N=C(\C(=O)N[C@@H]1C(=O)N2C(c3nnn[n-]3)=C(C[N+]3(CCNC(=O)c4ccc(O)c(O)c4Cl)CCCC3)CS[C@H]12)c1nc(N)sc1Cl)C(=O)[O-].[Na+] [Compound I-88] | – | – | – | – | – | – | –
8 | 0.063 µg/mL | 1 µg/mL | 0.25 µg/mL | 0.5 µg/mL | ≤ 0.031 µg/mL | 0.25 µg/mL | 1 µg/mL | CC(C)(O/N=C(\C(=O)N[C@@H]1C(=O)N2C(c3nn[n-]n3)=C(C[n+]3ccc(NCc4ccc(O)c(O)c4Cl)cc3)CS[C@H]12)c1csc(N)n1)C(=O)[O-].[Na+] [Compound I-49] | – | – | – | – | – | – | –
9 | 0.063 µg/mL (≈ 0.0791 µM) | 1 µg/mL (≈ 1.26 µM) | 0.125 µg/mL (≈ 0.157 µM) | 0.5 µg/mL (≈ 0.628 µM) | 0.063 µg/mL (≈ 0.0791 µM) | 0.063 µg/mL (≈ 0.0791 µM) | 0.25 µg/mL (≈ 0.314 µM) | CC(C)(O/N=C(\C(=O)N[C@@H]1C(=O)N2C(c3nnn[nH]3)=C(C[n+]3cccc4c3CCCN4C(=O)c3ccc(O)c(O)c3Cl)CS[C@H]12)c1csc(N)n1)C(=O)[O-] [Compound I-75] | – | – | – | – | – | – | –
10 | 0.125 µg/mL | 1 µg/mL | 0.25 µg/mL | 0.5 µg/mL | ≤ 0.031 µg/mL | 0.5 µg/mL | 0.5 µg/mL | CC(C)(O/N=C(\C(=O)N[C@@H]1C(=O)N2C(c3nnn[n-]3)=C(Cn3cc4ccc(CNC(=O)c5ccc(O)c(O)c5Cl)c[n+]4c3)CS[C@H]12)c1csc(N)n1)C(=O)[O-].[Na+] [Compound I-58] | – | – | – | – | – | – | –
